# Assay results taken from paper PMC11283614 (Veterinary World, 2024).
# Where two headings read alike, the source gives them in different places. Marks after values point to notes of the source that are not given here.
# How the values were obtained:
# in vitro = conditions: African green monkey
# SARS-CoV-2 [1] = assay: Suppression of SARS-CoV-2 replication in Vero cells, CPE-based titration of supernatant; type: cell-based; conditions: for Time during which viral activity was inhibited: 100 TCD50/mL SARS-CoV-2, compounds added after 1 h virus incubation; for Suppression of viral activity: up to a dilution of 100 TCD50/ml
# SARS-CoV-2 [2] = assay: Blood cell populations (blood smears) of infected hamsters; type: in vivo, Syrian hamsters; conditions: 7 dpi, therapeutic action
# [3] = test system: SARS-CoV-2 (delta strain); parameters: species or system Syrian hamsters; conditions: hamster, in vivo
# SARS-CoV-2 [4] = assay: Myelogram / bone marrow cell populations of infected hamsters; type: in vivo, Syrian hamsters
# [5] = Syrian, in vivo; for Number of dead hamsters after 2 days / Number of dead hamsters after 7 days: hamster
# [6] = test system: SARS-CoV-2 (delta strain); parameters: species or system Syrian hamsters; conditions: hamster, in vivo; remark: listed apart in the source
# VERO cells = conditions: incubation 24 h
structure (smiles),measurement,setting,value
CSc1nnc2cc(C)nc(SC)n12 [5a],CC50,in vitro,240 µg/mL
COC(=O)CSc1nnc2cc(C)nc(SC)n12 [5c],CC50,in vitro,40 µg/mL
CSc1nc(C)cc2nnc(SCCOc3ccccc3)n12 [5d],Time during which viral activity was inhibited,SARS-CoV-2 [1],24 to 72 h
same,Suppression of viral activity,SARS-CoV-2 [1],almost completely suppressed
same,Blood cells: Band,SARS-CoV-2 [2],19 ± 4.8%
same,Blood cells: Basophil,SARS-CoV-2 [2],0.01%
same,Blood cells: Destroyed,SARS-CoV-2 [2],1.0%
same,Blood cells: Eosinophil,SARS-CoV-2 [2],0.1 ± 0.05%
same,Blood cells: Lymphoblast,SARS-CoV-2 [2],0.9 ± 0.2%
same,Blood cells: Lymphocyte,SARS-CoV-2 [2],65 ± 9.3%
same,Blood cells: Metamyelocyte,SARS-CoV-2 [2],2 ± 0.5%
same,Blood cells: Monocyte,SARS-CoV-2 [2],2.1 ± 0.3%
same,Blood cells: Myeloid,SARS-CoV-2 [2],1.1 ± 0.1%
same,Blood cells: Segment,SARS-CoV-2 [2],8.8%
same,BM section histology (H&E),[3],preserved structure and cellularity
same,BM smear,[3],restored erythroid population
same,Effect on bone marrow changes seen in the positive control group,SARS-CoV-2 [4]; 9th day,does not obstruct the similar bone marrow changes
same,Recovery of bone marrow cell populations compared to the positive control,SARS-CoV-2 [4]; 18th day,more rapid recovery of all cell populations
same,Myelogram: Band,"SARS-CoV-2 [4]; infected hamsters, 9 dpi",26.1 ± 4.4%
same,Myelogram: Basophil,"SARS-CoV-2 [4]; infected hamsters, 9 dpi",0.1 ± 0.04%
same,Myelogram: Basophil erythroblast,"SARS-CoV-2 [4]; infected hamsters, 9 dpi",4.6 ± 0.9%
same,Myelogram: Destroyed,"SARS-CoV-2 [4]; infected hamsters, 9 dpi",3.2 ± 0.3%
same,Myelogram: Eosinophil,"SARS-CoV-2 [4]; infected hamsters, 9 dpi",3.2 ± 0.4%
same,Myelogram: Limph.patol.,"SARS-CoV-2 [4]; infected hamsters, 9 dpi",1.1 ± 0.4%
same,Myelogram: Lymphoblast,"SARS-CoV-2 [4]; infected hamsters, 9 dpi",3.5 ± 0.6%
same,Myelogram: Lymphocyte,"SARS-CoV-2 [4]; infected hamsters, 9 dpi",8.9 ± 1.2%
same,Myelogram: Macroph. Island,"SARS-CoV-2 [4]; infected hamsters, 9 dpi",1.6 ± 0.03%
same,Myelogram: Macroph. Resident,"SARS-CoV-2 [4]; infected hamsters, 9 dpi",1.6 ± 0.05%
same,Myelogram: Megakaryoblast,"SARS-CoV-2 [4]; infected hamsters, 9 dpi",1.6 ± 0.02%
same,Myelogram: Megakaryocyte azurophil,"SARS-CoV-2 [4]; infected hamsters, 9 dpi",1.6 ± 0.1%
same,Myelogram: Megakaryocyte basophil,"SARS-CoV-2 [4]; infected hamsters, 9 dpi",1.6 ± 0.1%
same,Myelogram: Metamyelocyte,"SARS-CoV-2 [4]; infected hamsters, 9 dpi",5.2 ± 1.0%
same,Myelogram: Mitos,"SARS-CoV-2 [4]; infected hamsters, 9 dpi",1.6 ± 0.02%
same,Myelogram: Monoblast,"SARS-CoV-2 [4]; infected hamsters, 9 dpi",2.9 ± 0.7%
same,Myelogram: Monocyte,"SARS-CoV-2 [4]; infected hamsters, 9 dpi",3.8 ± 0.8%
same,Myelogram: Myeloid,"SARS-CoV-2 [4]; infected hamsters, 9 dpi",3.9 ± 0.5%
same,Myelogram: Ortochrom erythroblast,"SARS-CoV-2 [4]; infected hamsters, 9 dpi",8.8 ± 0.9%
same,Myelogram: Pathol neutrophil,"SARS-CoV-2 [4]; infected hamsters, 9 dpi",2.1 ± 0.5%
same,Myelogram: Polychromatophil erythroblast,"SARS-CoV-2 [4]; infected hamsters, 9 dpi",5.9 ± 2.1%
same,Myelogram: Proerythroblast,"SARS-CoV-2 [4]; infected hamsters, 9 dpi",3.1 ± 0.5%
same,Myelogram: Segment,"SARS-CoV-2 [4]; infected hamsters, 9 dpi",3.7 ± 0.5%
same,Myelogram: Band,"SARS-CoV-2 [4]; infected hamsters, 18 dpi",15.6 ± 3.1 %
same,Myelogram: Basophil,"SARS-CoV-2 [4]; infected hamsters, 18 dpi",0.01 ± 0.01%
same,Myelogram: Destroyed,"SARS-CoV-2 [4]; infected hamsters, 18 dpi",0.1 ± 0.01%
same,Myelogram: Eosinophil,"SARS-CoV-2 [4]; infected hamsters, 18 dpi",0.2 ± 0.01%
same,Myelogram: Limph.patol.,"SARS-CoV-2 [4]; infected hamsters, 18 dpi",0.1 ± 0.04 %
same,Myelogram: Lymphoblast,"SARS-CoV-2 [4]; infected hamsters, 18 dpi",2.3 ± 0.5%
same,Myelogram: Lymphocyte,"SARS-CoV-2 [4]; infected hamsters, 18 dpi",5.2 ± 0.8%
same,Myelogram: Macroph. Island,"SARS-CoV-2 [4]; infected hamsters, 18 dpi",0.1 ± 0.01%
same,Myelogram: Macroph. Resident,"SARS-CoV-2 [4]; infected hamsters, 18 dpi",0.1 ± 0.01%
same,Myelogram: Megakaryoblast,"SARS-CoV-2 [4]; infected hamsters, 18 dpi",0.03 ± 0.02%
same,Myelogram: Megakaryocyte azurophil,"SARS-CoV-2 [4]; infected hamsters, 18 dpi",0.01 ± 0.01%
same,Myelogram: Megakaryocyte basophil,"SARS-CoV-2 [4]; infected hamsters, 18 dpi",0.01 ± 0.01%
same,Myelogram: Metamyelocyte,"SARS-CoV-2 [4]; infected hamsters, 18 dpi",20.1 ± 4.3%
same,Myelogram: Mitos,"SARS-CoV-2 [4]; infected hamsters, 18 dpi",0.01 ± 0.01%
same,Myelogram: Monoblast,"SARS-CoV-2 [4]; infected hamsters, 18 dpi",1.0 ± 0.02%
same,Myelogram: Monocyte,"SARS-CoV-2 [4]; infected hamsters, 18 dpi",1.5 ± 0.4%
same,Myelogram: Myeloid,"SARS-CoV-2 [4]; infected hamsters, 18 dpi",14.3 ± 2.7%
same,Myelogram: Pathol neutrophil,"SARS-CoV-2 [4]; infected hamsters, 18 dpi",0.1 ± 0.01 %
same,Myelogram: Polychromatophil erythroblast,"SARS-CoV-2 [4]; infected hamsters, 18 dpi",17.9 ± 2.3 %
same,Myelogram: Segment,"SARS-CoV-2 [4]; infected hamsters, 18 dpi",3.3 ± 0.3 %
same,Number of dead hamsters after 2 days,[5]; 0.2 mg/kg,0
same,Number of dead hamsters after 7 days,[5]; 0.2 mg/kg,0
same,Number of dead hamsters after 2 days,[5]; 1 mg/kg,0
same,Number of dead hamsters after 7 days,[5]; 1 mg/kg,0
same,CC50,in vitro,320 µg/mL
same,Development of lung injury (micro-CT),[6],inhibited
CSc1nnc2cc(C)nc(SCc3ccccc3)n12 [6a],CC50,in vitro,20 µg/mL
Cc1cc2nnc(SCCOc3ccccc3)n2c(SCc2ccccc2)n1 [6d],Monolayer preservation of VERO cells (toxicity),VERO cells,-
same,CC50,in vitro,320 µg/mL
CSc1nnc2ccc(-n3nc(C)cc3C)nn12 [10a],CC50,in vitro,40 µg/mL
Cc1cc(C)n(-c2ccc3nnc(SCC(N)=O)n3n2)n1 [10b],Time during which viral activity was inhibited,SARS-CoV-2 [1],24 to 72 h
same,Suppression of viral activity,SARS-CoV-2 [1],almost completely suppressed
same,Blood cells: Band,SARS-CoV-2 [2],27 ± 8.6%
same,Blood cells: Destroyed,SARS-CoV-2 [2],0.9 ± 0.02%
same,Blood cells: Eosinophil,SARS-CoV-2 [2],0.1 ± 0.01%
same,Blood cells: Lymphoblast,SARS-CoV-2 [2],4.0 ± 0.3%
same,Blood cells: Lymphocyte,SARS-CoV-2 [2],42.3 ± 6.7%
same,Blood cells: Metamyelocyte,SARS-CoV-2 [2],1.0 ± 0.1%
same,Blood cells: Monocyte,SARS-CoV-2 [2],3.9 ± 0.9%
same,Blood cells: Myeloid,SARS-CoV-2 [2],1 ± 0.05%
same,Blood cells: Pathol neutrophil,SARS-CoV-2 [2],2.8 ± 0.7%
same,Blood cells: Segment,SARS-CoV-2 [2],20%
same,Liver pathology (leukocyte / neutrophilic diapedesis),[3],Absence of neutrophils in liver tissues
same,Number of dead hamsters after 2 days,[5]; 0.16 mg/kg,0
same,Number of dead hamsters after 7 days,[5]; 0.16 mg/kg,0
same,Number of dead hamsters after 2 days,[5]; 0.8 mg/kg,0
same,Number of dead hamsters after 7 days,[5]; 0.8 mg/kg,1 ^*
same,Autopsy and histological findings in dead hamster,[5]; 0.8 mg/kg,"* Autopsy and histological studies revealed massive hemorrhages in the abdominal cavity and leukopenia. In all investigated preparations except 10b, no lethal effect was observed throughout the experiment. No abnormal appearance or behavior was noted in all investigated groups."
same,CC50,in vitro,240 µg/mL
same,Development of lung injury (micro-CT),[6],inhibited
Cc1cc(C)n(-c2ccc3nnc(SCCOc4ccccc4)n3n2)n1 [10d],Time during which viral activity was inhibited,SARS-CoV-2 [1],24 to 72 h
same,Suppression of viral activity,SARS-CoV-2 [1],almost completely suppressed
same,Blood cells: Band,SARS-CoV-2 [2],20.7 ± 7.3%
same,Blood cells: Basophil,SARS-CoV-2 [2],0.01 ± 0.005%
same,Blood cells: Eosinophil,SARS-CoV-2 [2],0.5 ± 0.01%
same,Blood cells: Lymphoblast,SARS-CoV-2 [2],0.9 ± 0.1%
same,Blood cells: Lymphocyte,SARS-CoV-2 [2],58 ± 6.2%
same,Blood cells: Metamyelocyte,SARS-CoV-2 [2],3.1 ± 0.4%
same,Blood cells: Monoblast,SARS-CoV-2 [2],1.0 ± 0.1%
same,Blood cells: Pathol neutrophil,SARS-CoV-2 [2],0.9 ± 0.1%
same,Blood cells: Segment,SARS-CoV-2 [2],13%
same,Spleen smear,[3],proliferation of late erythroblasts
same,Number of dead hamsters after 2 days,[5]; 0.32 mg/kg,0
same,Number of dead hamsters after 7 days,[5]; 0.32 mg/kg,0
same,Number of dead hamsters after 2 days,[5]; 1.6 mg/kg,0
same,Number of dead hamsters after 7 days,[5]; 1.6 mg/kg,0
same,CC50,in vitro,480 µg/mL
same,Development of lung injury (micro-CT),[6],inhibited
Cc1cc(C)n(-c2ccc3nnc(C)n3n2)n1 [compound 8],Time during which viral activity was inhibited,SARS-CoV-2 [1],24 to 72 h
same,Suppression of viral activity,SARS-CoV-2 [1],almost completely suppressed
same,Blood cells: Band,SARS-CoV-2 [2],10.0 ± 2.7%
same,Blood cells: Destroyed,SARS-CoV-2 [2],1.9 ± 0.3%
same,Blood cells: Eosinophil,SARS-CoV-2 [2],0.5 ± 0.1%
same,Blood cells: Lymphoblast,SARS-CoV-2 [2],1.1 ± 0.1%
same,Blood cells: Lymphocyte,SARS-CoV-2 [2],77.2 ± 8.1%
same,Blood cells: Metamyelocyte,SARS-CoV-2 [2],2.0 ± 0.6%
same,Blood cells: Monoblast,SARS-CoV-2 [2],2.9 ± 0.5%
same,Blood cells: Monocyte,SARS-CoV-2 [2],1.2 ± 0.1%
same,Blood cells: Segment,SARS-CoV-2 [2],4%
same,LN section histology (H&E),[3],preserved structure and cellularity
same,Lung pathology (diffuse lymphocytic-macrophage infiltrates),[3],Mild pathological manifestations
same,Number of dead hamsters after 2 days,[5]; 0.3 mg/kg,0
same,Number of dead hamsters after 7 days,[5]; 0.3 mg/kg,0
same,Number of dead hamsters after 2 days,[5]; 1.5 mg/kg,0
same,Number of dead hamsters after 7 days,[5]; 1.5 mg/kg,0
same,CC50,in vitro,480 µg/mL
same,Development of lung injury (micro-CT),[6],inhibited
